Results: ChEMBL document CHEMBL4342498, “Design and Discovery of an Orally Efficacious Spiroindolinone-Based Tankyrase Inhibitor for the Treatment of Colon Cancer” (J Med Chem, 2020)
In brackets after ≈: the same amount, converted by molar mass.

Columns and labels:
COLO 320DM = experiment: Antiproliferative activity against human COLO320DM cells assessed as inhibition of cell growth measured after 4 days by CellTiter-Glo assay; format: functional; settings: 96 h
Tankyrase 1/2 [1] = biological target: T1, Tankyrase 1/2 (Homo sapiens, UniProt Q9H2K2+O95271); settings: hek293
T1 sequence (Q9H2K2 whole entry): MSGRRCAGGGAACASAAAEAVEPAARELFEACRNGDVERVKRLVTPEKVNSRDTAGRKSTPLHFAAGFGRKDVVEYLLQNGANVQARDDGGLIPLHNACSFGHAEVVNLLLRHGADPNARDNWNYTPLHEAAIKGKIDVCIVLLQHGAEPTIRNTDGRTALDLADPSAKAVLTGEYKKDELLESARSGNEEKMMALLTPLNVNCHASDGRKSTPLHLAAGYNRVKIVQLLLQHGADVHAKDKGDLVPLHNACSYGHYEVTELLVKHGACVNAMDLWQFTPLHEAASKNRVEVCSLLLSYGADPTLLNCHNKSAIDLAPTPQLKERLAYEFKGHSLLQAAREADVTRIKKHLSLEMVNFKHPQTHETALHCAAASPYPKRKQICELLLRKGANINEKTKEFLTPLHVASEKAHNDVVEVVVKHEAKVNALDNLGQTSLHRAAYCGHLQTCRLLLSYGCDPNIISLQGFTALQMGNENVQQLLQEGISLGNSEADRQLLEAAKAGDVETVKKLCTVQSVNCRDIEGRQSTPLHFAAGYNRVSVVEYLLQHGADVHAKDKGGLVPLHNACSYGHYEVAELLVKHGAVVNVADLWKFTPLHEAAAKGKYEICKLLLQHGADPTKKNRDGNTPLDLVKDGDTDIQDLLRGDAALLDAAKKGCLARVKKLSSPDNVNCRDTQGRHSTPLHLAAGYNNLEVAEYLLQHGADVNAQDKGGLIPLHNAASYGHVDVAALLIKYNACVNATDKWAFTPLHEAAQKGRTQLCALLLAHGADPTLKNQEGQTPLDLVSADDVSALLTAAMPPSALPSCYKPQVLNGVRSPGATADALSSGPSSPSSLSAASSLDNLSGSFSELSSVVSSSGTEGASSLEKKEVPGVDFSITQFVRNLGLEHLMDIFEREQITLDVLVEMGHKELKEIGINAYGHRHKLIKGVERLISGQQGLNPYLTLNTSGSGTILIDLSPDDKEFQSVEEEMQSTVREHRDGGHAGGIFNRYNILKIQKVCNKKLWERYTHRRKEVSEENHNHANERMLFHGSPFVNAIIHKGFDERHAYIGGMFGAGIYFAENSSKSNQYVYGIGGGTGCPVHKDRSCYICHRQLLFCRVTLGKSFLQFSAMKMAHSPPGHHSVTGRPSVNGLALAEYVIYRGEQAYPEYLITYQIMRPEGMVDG
T1 sequence (O95271 whole entry): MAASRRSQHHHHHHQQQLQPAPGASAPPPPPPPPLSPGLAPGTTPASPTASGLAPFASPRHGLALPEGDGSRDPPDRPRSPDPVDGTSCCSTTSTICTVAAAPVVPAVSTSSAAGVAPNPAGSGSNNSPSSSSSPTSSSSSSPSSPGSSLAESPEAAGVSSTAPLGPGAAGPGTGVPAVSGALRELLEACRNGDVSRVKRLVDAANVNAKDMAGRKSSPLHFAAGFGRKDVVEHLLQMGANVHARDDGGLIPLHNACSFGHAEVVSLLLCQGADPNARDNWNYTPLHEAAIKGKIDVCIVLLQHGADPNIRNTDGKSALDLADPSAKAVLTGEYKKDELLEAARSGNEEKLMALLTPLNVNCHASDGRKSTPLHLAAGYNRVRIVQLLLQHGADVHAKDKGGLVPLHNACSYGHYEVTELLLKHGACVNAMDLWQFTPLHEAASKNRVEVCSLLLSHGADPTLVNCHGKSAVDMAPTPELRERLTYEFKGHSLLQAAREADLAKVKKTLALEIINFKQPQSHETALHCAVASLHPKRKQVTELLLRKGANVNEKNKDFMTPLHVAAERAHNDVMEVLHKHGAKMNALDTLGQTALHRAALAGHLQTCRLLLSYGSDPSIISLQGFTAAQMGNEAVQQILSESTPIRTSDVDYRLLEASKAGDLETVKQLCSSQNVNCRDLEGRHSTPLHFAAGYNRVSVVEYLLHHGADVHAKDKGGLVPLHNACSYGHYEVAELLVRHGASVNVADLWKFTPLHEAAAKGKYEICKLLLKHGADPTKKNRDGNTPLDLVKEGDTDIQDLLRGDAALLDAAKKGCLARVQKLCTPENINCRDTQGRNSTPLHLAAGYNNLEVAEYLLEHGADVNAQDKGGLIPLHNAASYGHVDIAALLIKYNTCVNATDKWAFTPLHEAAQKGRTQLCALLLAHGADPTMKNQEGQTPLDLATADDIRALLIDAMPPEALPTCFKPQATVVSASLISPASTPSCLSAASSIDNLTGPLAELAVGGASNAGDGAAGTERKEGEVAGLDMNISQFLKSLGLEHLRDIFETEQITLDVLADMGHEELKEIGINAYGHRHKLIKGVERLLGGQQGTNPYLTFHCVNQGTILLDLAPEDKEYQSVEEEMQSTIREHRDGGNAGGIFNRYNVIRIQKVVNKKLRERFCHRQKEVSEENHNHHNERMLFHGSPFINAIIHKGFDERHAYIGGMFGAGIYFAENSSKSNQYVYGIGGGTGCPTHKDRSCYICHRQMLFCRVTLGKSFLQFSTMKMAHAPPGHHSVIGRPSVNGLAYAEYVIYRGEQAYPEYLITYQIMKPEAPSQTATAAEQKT
Description: Inhibition of TNKS/TNKS2 (unknown origin) expressed in HEK293 cells assessed as reduction in Wnt-signaling measured after 24 hrs by TCF-luciferase reporter gene assay

[2] = biological target: T2, Poly [ADP-ribose] polymerase tankyrase-1 (Homo sapiens, UniProt O95271)
T2 sequence (O95271 whole entry): T1 sequence (O95271 whole entry)
Description: Inhibition of recombinant human N-terminal TEV cleavage site-fused/FLAG-poly his-tagged TNKS SAM-PARP domain (1024 to 1327 residues) expressed in Escherichia coli assessed as reduction in auto-PARylation preincubated for 10 mins followed by biotinylated-NAD+ addition and measured after 45 mins by ELISA

[3] = biological target: T3, Poly [ADP-ribose] polymerase tankyrase-2 (Homo sapiens, UniProt Q9H2K2); experiment: Inhibition of recombinant human N-terminal TEV cleavage site-fused/FLAG-poly his-tagged TNKS2 ARC5-SAM-PARP domain (613 to 1166 residues) expressed in Escherichia coli assessed as reduction in auto-PARylation preincubated for 10 mins followed by biotinylated-NAD+ addition and measured after 45 mins by ELISA
T3 sequence (Q9H2K2 whole entry): T1 sequence (Q9H2K2 whole entry)

Tankyrase 1/2 [4] = biological target: T1, Tankyrase 1/2
Description: Inhibition of TNKS/TNKS2 (unknown origin) expressed in human DLD1 cells assessed as reduction in Wnt-signaling measured after 24 hrs by TCF-luciferase reporter gene assay

[5] = Stability in mouse liver microsomes assessed as parent compound remaining at 1 uM measured after 60 mins in presence of NADPH by LC-MS/MS analysis; format: ADME, Microsome; settings: read-out: Stability
MDR1 = experiment: Efflux ratio of permeability across basolateral to apical side over apical to basolateral side in MDCK2-MDR1 cells; format: ADME, cell-based, Canis lupus familiaris; settings: dog, MDCK-MDR1
[6] = Stability in human liver microsomes assessed as parent compound remaining at 1 uM measured after 60 mins in presence of NADPH by LC-MS/MS analysis; format: ADME, Microsome; settings: read-out: Stability
[7] = Efflux ratio of permeability across basolateral to apical side over apical to basolateral side in MDCK2 cells; format: ADME, cell-based, Canis lupus familiaris, MDCK-II; settings: dog, mdck
physchem = settings: phosphate buffered saline, pH 7.4
[8] = Net efflux ratio of permeability across basolateral to apical side over apical to basolateral side in MDCK2-MDR1 cells to MDCK2 cells; format: ADME, cell-based, Canis lupus familiaris; settings: dog, mdck

| Compound | GI50 (COLO 320DM) [nM] | IC50 (Tankyrase 1/2 [1]) [nM] | IC50 [2] [nM] | IC50 [3] [nM] | IC50 (Tankyrase 1/2 [4]) [nM] | remaining at 1 h, 1 µM [5] [%] | efflux ratio (MDR1) | remaining at 1 h, 1 µM [6] [%] | efflux ratio [7] | solubility at 1 h, 200 µM (physchem) [µg/mL] | Ratio [8] |
| --- | --- | --- | --- | --- | --- | --- | --- | --- | --- | --- | --- |
| CN1CCc2c1nc(N1CCC3(CC1)CN(CCO)c1cc(F)cc(F)c13)[nH]c2=O | 5010 | 36.5 | 53.5 | 73.6 | 140.6 | – | – | – | – | – | – |
| COCCN1C(=O)C2(CCN(c3nc4c(c(=O)[nH]3)CCCN4C)CC2)c2c(F)cc(F)cc21 | 50 | 0.3 | 10.3 | 11.7 | 3 | 0.1 | 4.8 | 1.8 | 1.3 | 6.3 (≈ 13.7 µM) | 3.7 |
| CN1CCCc2c1nc(N1CCC3(CC1)C(=O)N(C)c1cc(OCCN4CCCC4)cc(F)c13)[nH]c2=O | 1080 | 0.4 | 11.1 | 12.4 | 6.6 | 100 | 21.9 | 61.5 | 7.1 | 100 (≈ 196 µM) | 3.1 |
| CN1CCC(Oc2cc(F)c3c(c2)N(C)C(=O)C32CCN(c3nc4c(c(=O)[nH]3)CCCN4C)CC2)CC1 | 660 | 0.1 | 6.1 | 21.2 | 2.7 | 60.3 | 11.7 | 22.4 | 4.6 | 102 (≈ 201 µM) | 2.5 |
| CN1CCCc2c1nc(N1CCC3(CC1)C(=O)N(CC(=O)O)c1cc(F)cc(F)c13)[nH]c2=O | 12600 | 221 | 28.5 | 29.8 | 1185 | 100 | 0.5 | 100 | 0.4 | 92.1 (≈ 200 µM) | 1.3 |
| CN1CCCc2c1nc(N1CCC3(CC1)C(=O)N(CS(C)(=O)=O)c1cc(F)cc(F)c13)[nH]c2=O | 530 | 0.1 | 4.3 | 5.5 | 5.7 | 0.1 | 12 | 4.1 | 3.3 | 3 (≈ 6.08 µM) | 3.6 |
| CN1CCN(CCOc2cc(F)c3c(c2)N(C)C(=O)C32CCN(c3nc4c(c(=O)[nH]3)CCCN4C)CC2)CC1 | 740 | 1.2 | 7.9 | 18.7 | 6.3 | 83.5 | 86.4 | 56.5 | 13.1 | 188 (≈ 348 µM) | 6.6 |
| CN1CCCc2c1nc(N1CCC3(CC1)C(=O)N(C)c1cc(OCCN4CCCCC4)cc(F)c13)[nH]c2=O | 1090 | 2.5 | 12 | 33.3 | 5 | 56 | 6.1 | 18.5 | 3.2 | 101 (≈ 192 µM) | 1.9 |
